Laboratory results: ChEMBL document CHEMBL5260796, “Thiazolidinediones and PPAR orchestra as antidiabetic agents: From past to present” (Eur J Med Chem, 2017)

Experiments:
Mus musculus = assay: Antidiabetic activity against diabetic KKAy mouse model assessed as decrease in plasma glucose level at 50 mg/kg,po by glucose analyzer; assay type: functional; design: scale not given: the % may be the effect or the level left
Rattus norvegicus = assay: Antidiabetic activity against STZ-induced diabetic Sprague-Dawley rat assessed as reduction in fasting blood glucose level at 0.1 mg/kg,po for 2 months; assay type: functional; design: scale not given: the % may be the effect or the level left; details: 1460 h

Cc1c(C)c2c(c(C)c1O)CCC(C)(COc1ccc(CC3SC(=O)NC3=O)cc1)O2 (configuration not stated) [TROGLITAZONE]
Activity (Mus musculus): 38.5%

Cc1oc(-c2ccccc2)nc1CCC(=O)c1ccc(CC2SC(=O)NC2=O)cc1 (configuration not stated) [DARGLITAZONE]
Activity (Rattus norvegicus): 80%
